Data from PubChem BioAssay (NCI).
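Tested at 5 concentrations; 48 h exposure; 96-well plates; endpoints linearly interpolated, else capped at highest concentration. GI50 = concentration required for 50% inhibition of growth. TGI is the concentration that stops growth completely.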

Columns and labels:
Assay in all cases: NCI-60 cell line screen, 48 h
HL-60(TB) leukemia = system: HL-60(TB) leukemia
HT29 colon = system: HT29 colon
SF-539 CNS = system: SF-539 CNS
RPMI-8226 leukemia = system: RPMI-8226 leukemia
OVCAR-4 ovarian = system: OVCAR-4 ovarian
NCI-H522 lung = system: NCI-H522 lung
PC-3 prostate = system: PC-3 prostate
NCI/ADR-RES ovarian = system: NCI/ADR-RES ovarian
786-0 renal = system: 786-0 renal
HCT-116 colon = system: HCT-116 colon
SW-620 colon = system: SW-620 colon
T-47D breast = system: T-47D breast
IGROV1 ovarian = system: IGROV1 ovarian
HCT-15 colon = system: HCT-15 colon
U251 CNS = system: U251 CNS
SN12C renal = system: SN12C renal
OVCAR-3 ovarian = system: OVCAR-3 ovarian
LOX IMVI melanoma = system: LOX IMVI melanoma
NCI-H460 lung = system: NCI-H460 lung
BT-549 breast = system: BT-549 breast
CCRF-CEM leukemia = system: CCRF-CEM leukemia
UO-31 renal = system: UO-31 renal
MDA-MB-231 breast = system: MDA-MB-231 breast
KM12 colon = system: KM12 colon
HCC-2998 colon = system: HCC-2998 colon
SNB-19 CNS = system: SNB-19 CNS
SK-MEL-28 melanoma = system: SK-MEL-28 melanoma
SK-MEL-2 melanoma = system: SK-MEL-2 melanoma
HOP-92 NSCLC = system: HOP-92 NSCLC
MOLT-4 leukemia = system: MOLT-4 leukemia
SF-268 CNS = system: SF-268 CNS
OVCAR-8 ovarian = system: OVCAR-8 ovarian
A549 NSCLC = system: A549 NSCLC
COLO 205 colon = system: COLO 205 colon
CAKI-1 renal = system: CAKI-1 renal
HS 578T breast = system: HS 578T breast
ACHN renal = system: ACHN renal
TK-10 renal = system: TK-10 renal
UACC-62 melanoma = system: UACC-62 melanoma
SK-MEL-5 melanoma = system: SK-MEL-5 melanoma
M14 melanoma = system: M14 melanoma
NCI-H23 lung = system: NCI-H23 lung
SR leukemia = system: SR leukemia
SK-OV-3 ovarian = system: SK-OV-3 ovarian
K-562 leukemia = system: K-562 leukemia
SNB-75 CNS = system: SNB-75 CNS
EKVX NSCLC = system: EKVX NSCLC
A498 renal = system: A498 renal
SF-295 CNS = system: SF-295 CNS
UACC-257 melanoma = system: UACC-257 melanoma
RXF 393 renal = system: RXF 393 renal
MCF7 breast = system: MCF7 breast
MALME-3M melanoma = system: MALME-3M melanoma
OVCAR-5 ovarian = system: OVCAR-5 ovarian
DU-145 prostate = system: DU-145 prostate
HOP-62 NSCLC = system: HOP-62 NSCLC
MDA-MB-435 = system: MDA-MB-435

COc1ccc2c(c1OC)C(=O)OC2C1c2c(c(N)c3c(c2OC)OCO3)CCN1C (centres undefined) gave a GI50 (HL-60(TB) leukemia) of 4.02 µM, a TGI (HL-60(TB) leukemia) of 26.4 µM and a GI50 (HT29 colon) of 3.96 µM. It also gave a TGI (HT29 colon) of 52.8 µM, a GI50 (SF-539 CNS) of 2.11 µM and a TGI (SF-539 CNS) of 5.53 µM. For the same compound, the GI50 (RPMI-8226 leukemia) was 3.04 µM, the TGI (RPMI-8226 leukemia) was 12.2 µM and the GI50 (OVCAR-4 ovarian) was 5.33 µM. For the same compound, the TGI (OVCAR-4 ovarian) was > 100 µM, the GI50 (NCI-H522 lung) was 2.07 µM and the TGI (NCI-H522 lung) was 5.3 µM. For the same compound, the GI50 (PC-3 prostate) was 3.42 µM, the TGI (PC-3 prostate) was > 100 µM and the GI50 (NCI/ADR-RES ovarian) was 1.58 µM. The TGI (NCI/ADR-RES ovarian) was 3.2 µM, the GI50 (786-0 renal) was 7.51 µM and the TGI (786-0 renal) was > 100 µM. For the same compound, the GI50 (HCT-116 colon) was 3.19 µM, the TGI (HCT-116 colon) was 14.6 µM and the GI50 (SW-620 colon) was 3.26 µM. The TGI (SW-620 colon) was > 100 µM, the GI50 (T-47D breast) was 2.63 µM and the TGI (T-47D breast) was 19.6 µM. The GI50 (IGROV1 ovarian) was 1.68 µM, the TGI (IGROV1 ovarian) was 6.68 µM and the GI50 (HCT-15 colon) was 2.64 µM. The TGI (HCT-15 colon) was 8.38 µM, the GI50 (U251 CNS) was 3.94 µM and the TGI (U251 CNS) was > 100 µM. It also gave a GI50 (SN12C renal) of 4.46 µM, a TGI (SN12C renal) of 21.9 µM and a GI50 (OVCAR-3 ovarian) of 4.01 µM. For the same compound, the TGI (OVCAR-3 ovarian) was 34.6 µM, the GI50 (LOX IMVI melanoma) was 4.8 µM and the TGI (LOX IMVI melanoma) was 24 µM. It also gave a GI50 (NCI-H460 lung) of 3.37 µM, a TGI (NCI-H460 lung) of 11.6 µM and a GI50 (BT-549 breast) of 2.32 µM. For the same compound, the TGI (BT-549 breast) was 9.12 µM, the GI50 (CCRF-CEM leukemia) was 2.63 µM and the TGI (CCRF-CEM leukemia) was 8.44 µM. The GI50 (UO-31 renal) was 5.28 µM, the TGI (UO-31 renal) was 92.8 µM and the GI50 (MDA-MB-231 breast) was 3.15 µM. For the same compound, the TGI (MDA-MB-231 breast) was 20.7 µM, the GI50 (KM12 colon) was 3.33 µM and the TGI (KM12 colon) was 62.7 µM. The GI50 (HCC-2998 colon) was 6.86 µM, the TGI (HCC-2998 colon) was 28.2 µM and the GI50 (SNB-19 CNS) was 2.7 µM. For the same compound, the TGI (SNB-19 CNS) was 9.25 µM, the GI50 (SK-MEL-28 melanoma) was 8.71 µM and the TGI (SK-MEL-28 melanoma) was > 100 µM. The GI50 (SK-MEL-2 melanoma) was 3.17 µM, the TGI (SK-MEL-2 melanoma) was 28.2 µM and the GI50 (HOP-92 NSCLC) was 12.2 µM. The TGI (HOP-92 NSCLC) was 59.3 µM, the GI50 (MOLT-4 leukemia) was 4.96 µM and the TGI (MOLT-4 leukemia) was > 100 µM. It also gave a GI50 (SF-268 CNS) of 4.57 µM, a TGI (SF-268 CNS) of 23 µM and a GI50 (OVCAR-8 ovarian) of 3.94 µM. The TGI (OVCAR-8 ovarian) was 35.2 µM, the GI50 (A549 NSCLC) was 6.23 µM and the TGI (A549 NSCLC) was > 100 µM. The GI50 (COLO 205 colon) was 5.6 µM, the TGI (COLO 205 colon) was 26 µM and the GI50 (CAKI-1 renal) was 3.81 µM. For the same compound, the TGI (CAKI-1 renal) was > 100 µM, the GI50 (HS 578T breast) was 2.75 µM and the TGI (HS 578T breast) was 9.39 µM. The GI50 (ACHN renal) was 6.75 µM, the TGI (ACHN renal) was > 100 µM and the GI50 (TK-10 renal) was 6.57 µM. The TGI (TK-10 renal) was > 100 µM, the GI50 (UACC-62 melanoma) was 4.04 µM and the TGI (UACC-62 melanoma) was > 100 µM. It also gave a GI50 (SK-MEL-5 melanoma) of 3.03 µM, a TGI (SK-MEL-5 melanoma) of 13.2 µM and a GI50 (M14 melanoma) of 1.86 µM. The TGI (M14 melanoma) was 4.41 µM, the GI50 (NCI-H23 lung) was 4.74 µM and the TGI (NCI-H23 lung) was > 100 µM. For the same compound, the GI50 (SR leukemia) was 3.18 µM, the TGI (SR leukemia) was 29.2 µM and the GI50 (SK-OV-3 ovarian) was 3.23 µM. For the same compound, the TGI (SK-OV-3 ovarian) was 23.4 µM, the GI50 (K-562 leukemia) was 4.43 µM and the TGI (K-562 leukemia) was > 100 µM. For the same compound, the GI50 (SNB-75 CNS) was 2.83 µM, the TGI (SNB-75 CNS) was 11.9 µM and the GI50 (EKVX NSCLC) was 5.18 µM. For the same compound, the TGI (EKVX NSCLC) was > 100 µM, the GI50 (A498 renal) was 2.44 µM and the TGI (A498 renal) was 13.3 µM. The GI50 (SF-295 CNS) was 5.59 µM, the TGI (SF-295 CNS) was 61.8 µM and the GI50 (UACC-257 melanoma) was 27.3 µM. For the same compound, the TGI (UACC-257 melanoma) was > 100 µM, the GI50 (RXF 393 renal) was 4.25 µM and the TGI (RXF 393 renal) was > 100 µM. For the same compound, the GI50 (MCF7 breast) was 3.11 µM, the TGI (MCF7 breast) was 16.1 µM and the GI50 (MALME-3M melanoma) was 6.51 µM. For the same compound, the TGI (MALME-3M melanoma) was > 100 µM, the GI50 (OVCAR-5 ovarian) was 9.35 µM and the TGI (OVCAR-5 ovarian) was 38.8 µM. It also gave a GI50 (DU-145 prostate) of 2.8 µM, a TGI (DU-145 prostate) of 12 µM and a GI50 (HOP-62 NSCLC) of 5.15 µM. The TGI (HOP-62 NSCLC) was > 100 µM.
For CCOC(=O)C1C(c2ccc3c(c2)OCO3)c2c([nH][nH]c2=O)CC1(O)OCC (centres undefined), the TGI (HL-60(TB) leukemia) was > 100 µM, the TGI (HT29 colon) was > 100 µM and the TGI (SF-539 CNS) was > 100 µM. The TGI (RPMI-8226 leukemia) was > 100 µM, the TGI (OVCAR-4 ovarian) was > 100 µM and the TGI (NCI-H522 lung) was > 100 µM. For the same compound, the TGI (MDA-MB-435) was > 100 µM, the TGI (PC-3 prostate) was > 100 µM and the TGI (NCI/ADR-RES ovarian) was > 100 µM. For the same compound, the TGI (786-0 renal) was > 100 µM, the TGI (HCT-116 colon) was > 100 µM and the TGI (SW-620 colon) was > 100 µM. The TGI (T-47D breast) was > 100 µM, the TGI (IGROV1 ovarian) was > 100 µM and the TGI (HCT-15 colon) was > 100 µM. The TGI (U251 CNS) was > 100 µM, the TGI (SN12C renal) was > 100 µM and the TGI (OVCAR-3 ovarian) was > 100 µM. For the same compound, the TGI (LOX IMVI melanoma) was > 100 µM, the TGI (NCI-H460 lung) was > 100 µM and the TGI (CCRF-CEM leukemia) was > 100 µM. The TGI (UO-31 renal) was > 100 µM, the TGI (MDA-MB-231 breast) was > 100 µM and the TGI (KM12 colon) was > 100 µM. The TGI (HCC-2998 colon) was > 100 µM, the TGI (SK-MEL-28 melanoma) was > 100 µM and the TGI (SK-MEL-2 melanoma) was > 100 µM. For the same compound, the TGI (HOP-92 NSCLC) was > 100 µM, the TGI (MOLT-4 leukemia) was > 100 µM and the TGI (SF-268 CNS) was > 100 µM. For the same compound, the TGI (OVCAR-8 ovarian) was > 100 µM, the TGI (A549 NSCLC) was > 100 µM and the TGI (COLO 205 colon) was > 100 µM. The TGI (CAKI-1 renal) was > 100 µM, the TGI (HS 578T breast) was > 100 µM and the TGI (ACHN renal) was > 100 µM. The TGI (TK-10 renal) was > 100 µM, the TGI (UACC-62 melanoma) was > 100 µM and the TGI (SK-MEL-5 melanoma) was > 100 µM. The TGI (M14 melanoma) was > 100 µM, the TGI (NCI-H23 lung) was > 100 µM and the TGI (SR leukemia) was > 100 µM. For the same compound, the TGI (SNB-75 CNS) was > 100 µM, the TGI (EKVX NSCLC) was > 100 µM and the TGI (A498 renal) was > 100 µM. For the same compound, the TGI (SF-295 CNS) was > 100 µM, the TGI (UACC-257 melanoma) was > 100 µM and the TGI (MCF7 breast) was > 100 µM. The TGI (MALME-3M melanoma) was > 100 µM, the TGI (OVCAR-5 ovarian) was > 100 µM and the TGI (DU-145 prostate) was > 100 µM. For the same compound, the TGI (HOP-62 NSCLC) was > 100 µM.
